In patent US20230058954A1, “APREPITANT FOR USE IN THE TOPICAL TREATMENT OF FACIAL NEURALGIA” (ASSISTANCE PUBLIQUE - HOPITAUX DE PARIS, priority 2020, published 2023):

System: patients suffering from facial neuralgia
Assay: Earlier treatments of the same patients (not relieved by)
Type: in vivo, human
[1] = Patient 3, post-zooster facial neuralgia

Compound: COc1cccc(C2(O)CCCCC2CN(C)C)c1 (stereo not drawn) [tramadol]
- relief of pain by earlier treatment [1]: No relieved

Compound: CNCC[C@H](Oc1cccc2ccccc12)c1cccs1 [duloxetine]
- relief of pain by earlier treatment (Patient 2, facial neuralgia): No relieved

Compound: NCC1(CC(=O)O)CCCCC1 [gabapentin]
- relief of pain by earlier treatment (Patient 2, facial neuralgia): No relieved

Compound: CC(C)C[C@H](CN)CC(=O)O [pregabalin]
- relief of pain by earlier treatment (Patient 2, facial neuralgia): No relieved
- relief of pain by earlier treatment [1]: No relieved

Compound: CN(C)CCC=C1c2ccccc2CCc2ccccc21 [amitriptyline]
- relief of pain by earlier treatment (Patient 2, facial neuralgia): No relieved
- relief of pain by earlier treatment [1]: No relieved

Compound: CCC(=O)C(CC(C)N(C)C)(c1ccccc1)c1ccccc1 (stereo not drawn) [methadone]
- relief of pain by earlier treatment (Patient 2, facial neuralgia): No relieved

Compound: CNC1(c2ccccc2Cl)CCCCC1=O (stereo not drawn) [ketamine]
- relief of pain by earlier treatment (Patient 1, trigeminal neuralgia): No relieved
